Source: patent US6506801B1, “Methods of treating anosmia and repopulating olfactory nerves with retinoids” (Monell Chemical Senses Center, priority 2000, dated 2003)

Key:
[1] = system: olfactory nerve recovery after bilateral olfactory nerve transection; experiment: Buried food task after bilateral olfactory nerve transection (BNX)
complicated anosmia = conditions: Duncan et al. 1962; cited from earlier work

Row | Compound | initial rate of recovery versus BNX-oil ([1]; BNX mice, FIG. 1, food-finding times to post-surgical day 14) | treatment effect on mean food finding times across the recovery period ([1]; BNX mice, post-surgical days 3-14, two-factor repeated measures ANOVA, F(1,15)=5.85, p<0.05, treatment X day interaction p<0.005) | mean post-surgical day on which animals reached criterion for initial recovery (first day of three consecutive days of <180 seconds food-finding time) ([1]; BNX mice, single oral 75 mg/kg atRA in sesame oil one day after surgery, n=9, BNX-oil 10.75±1.28, p<0.05) [post-surgical day] | post-surgical days between which animals reached criterion for initial recovery ([1]; BNX mice, single oral 75 mg/kg atRA in sesame oil, n=9) | recovery time needed to return to pre-surgical level of performance (≦30 seconds) ([1]; BNX mice, single oral 75 mg/kg atRA, no difference from BNX-oil (9.25 days), p=0.761) [days] | food-finding performance of sham-operated animals after surgery ([1]; sham mice, single oral 75 mg/kg atRA, n=4, FIG. 1) | usefulness in treating anosmia associated with skull injuries and fractures with sheering of olfactory nerves (complicated anosmia)
1 | CC1=C(/C=C/C(C)=C/C=C/C(C)=C/C(=O)O)C(C)(C)CCC1 [RA, all-trans retinoic acid] | faster | significant treatment effect | 7.56±0.67 | 4-11 post-surgical days | 9.8 | performed at pre-surgical levels | –
2 | Vitamin A | – | – | – | – | – | – | not to be useful
